Source: US20030054291A1, “Optical data storage medium containing a hemicyanine dye as the light-absorbing compound in the information layer” (priority 2001, published 2003)

Experiment: Solubility in TFP (2,2,3,3-tetrafluoropropanol)
Type: physicochemical
Source text: Solubility: >2% in TFP (2,2,3,3-tetrafluoropropanol)

CN(C)c1ccc(/C=C/C2=[N+](C)c3ccccc3C2(C)C)o1 [Example 1]
Solubility: > 2%
